Source: ChEMBL document CHEMBL1134375, “Synthesis of 2-amino-5-sulfanyl-1,3,4-thiadiazole derivatives and evaluation of their antidepressant and anxiolytic activity” (2001)
The source made the active and inactive calls. The rule behind the calls is not given here.

Columns and labels:
Rattus norvegicus [1] = assay: Percentage decrease in immobility time, after acute administration (intraperitoneally) in rat dosed at 20 mg/kg; format: functional; settings: route intraperitoneal
Rattus norvegicus [2] = assay: Percentage decrease in immobility time, after subchronic administration (intraperitoneally) in rat dosed at 20 mg/kg; format: functional; settings: route intraperitoneal
Mus musculus [3] = species: Mus musculus; assay: Maximum percentage decrease in immobility time was determined by despair test in Male albino Swiss mice; NE=no effect; format: functional
Rattus norvegicus [4] = assay: Amnesia inducing potential (S1 latency) was determined by passive avoidance test in rat at 2 mg/kg dose; format: functional
Rattus norvegicus [5] = assay: Amnesia inducing potential (S2 latency) was determined by passive avoidance test in rat at 2 mg/kg dose; format: functional
Rattus norvegicus [6] = assay: Amnesia inducing potential (S1 latency) was determined by passive avoidance test in rat 0.5 mg/kg dose; format: functional
Rattus norvegicus [7] = assay: Amnesia inducing potential (S1 latency) was determined by passive avoidance test in rat at 0 mg/kg dose; format: functional
Mus musculus [8] = assay: Ethanol potentiation in mice (intraperitoneal administration); settings: ip
[9] = Percentage decrease in motor activity after intraperitoneal administration of a dose of 600 mg/kg in Male albino Swiss mice; format: functional, Mus musculus
[10] = Maximum percentage decrease in immobility time was determined by despair test at a dose of 10 mg/kg in Male albino Swiss mice; format: functional, Mus musculus
Mus musculus [11] = assay: Effective dose determined by rotarod test in mice (intraperitoneal administration); settings: ip
Rattus norvegicus [12] = assay: Amnesia inducing potential (S1 latency) was determined by passive avoidance test in ratat 1 mg/kg dose; format: functional
[13] = Percentage decrease in motor activity after intraperitoneal administration of a dose of 500 mg/kg in Male albino Swiss mice; format: functional, Mus musculus
Rattus norvegicus [14] = assay: Amnesia inducing potential (S2 latency) was determined by passive avoidance test in ratin rat at 0 mg/kg dose; format: functional
Rattus norvegicus [15] = assay: Amnesia inducing potential (S2 latency) was determined by passive avoidance test in rat at 1 mg/kg dose; format: functional
Rattus norvegicus [16] = assay: Amnesia inducing potential (S2 latency) was determined by passive avoidance test in rat at 0.5 mg/kg dose; format: functional
[17] = Percentage decrease in motor activity after intraperitoneal administration of a dose of 300 mg/kg in Male albino Swiss mice; format: functional, Mus musculus
[18] = Percentage decrease in motor activity after intraperitoneal administration of a dose of 400 mg/kg in Male albino Swiss mice; format: functional, Mus musculus
Mus musculus [19] = species: Mus musculus; assay: Maximum percentage decrease in immobility time in mice, determined by despair test; NE=no effect; format: functional
[20] = Maximum percentage decrease in immobility time was determined by despair test at a dose of 0.3 mg/kg in Male albino Swiss mice; format: functional, Mus musculus
[21] = Maximum percentage decrease in immobility time was determined by despair test at a dose of 1 mg/kg in Male albino Swiss mice; format: functional, Mus musculus
[22] = Maximum percentage decrease in immobility time was determined by despair test at a dose of 50 mg/kg in Male albino Swiss mice; format: functional, Mus musculus
[23] = Maximum percentage decrease in immobility time was determined by despair test at a dose of 0.1 mg/kg in Male albino Swiss mice; format: functional, Mus musculus
[24] = Maximum percentage decrease in immobility time was determined by despair test at a dose of 5 mg/kg in Male albino Swiss mice; format: functional, Mus musculus
Rattus norvegicus [25] = assay: Maximum percentage decrease in immobility time was determined after subchronic administration of a dose of 2.5 mg/kg in rat; format: functional
Rattus norvegicus [26] = assay: Maximum percentage decrease in immobility time was determined after acute intraperitoneal administration of a dose of 20 mg/kg in rat; format: functional
Rattus norvegicus [27] = assay: Maximum percentage decrease in immobility time was determined after subchronic administration of a dose of 1.25 mg/kg in rat; format: functional
Rattus norvegicus [28] = assay: Maximum percentage decrease in immobility time was determined after subchronic administration of a dose of 5 mg/kg in rat; format: functional
Rattus norvegicus [29] = assay: Maximum percentage decrease in immobility time was determined after acute intraperitoneal administration of a dose of 10 mg/kg in rat; format: functional
Rattus norvegicus [30] = assay: Maximum percentage decrease in immobility time was determined after acute intraperitoneal administration of a dose of 5 mg/kg in rat; format: functional
[31] = Maximum percentage decrease in immobility time was determined by despair test at a dose of 0.5 mg/kg in Male albino Swiss mice; format: functional, Mus musculus
[32] = Maximum percentage decrease in immobility time was determined by despair test at a dose of 0.25 mg/kg in Male albino Swiss mice; format: functional, Mus musculus
[33] = Maximum percentage decrease in immobility time was determined by despair test at a dose of 0.06 mg/kg in Male albino Swiss mice; format: functional, Mus musculus

CN(C)CCCN1c2ccccc2CCc2ccccc21 [IMIPRAMINE]
Decrease (Rattus norvegicus [1]): <45% | Decrease (Rattus norvegicus [2]): <56%

CCC(=O)Nc1nnc(SCc2ccccc2)s1
Maximum percentage decrease in immobility time (Mus musculus [3]): inactive

O=C(Nc1nnc(SCc2ccccc2)s1)c1ccccc1
Maximum percentage decrease in immobility time (Mus musculus [3]): inactive

COc1cccc(CSc2nnc(N)s2)c1
Activity (Rattus norvegicus [4]): 7.2 | Activity (Rattus norvegicus [5]): 180 | Activity (Rattus norvegicus [6]): 4.7 | Activity (Rattus norvegicus [7]): 5.6 | ED50 (Mus musculus [8]): 162 mg/kg | Decrease [9]: <68% | Decrease [10]: 21% | ED50 (Mus musculus [11]): 534 mg/kg | Activity (Rattus norvegicus [12]): 5.6 | Decrease [13]: <46% | Activity (Rattus norvegicus [14]): 166 | Activity (Rattus norvegicus [15]): 135 | Activity (Rattus norvegicus [16]): 146 | Decrease [17]: 19% | Decrease [18]: <26%

CCCSc1nnc(N)s1
NE (Mus musculus [19]): inactive

COc1ccc(CSc2nnc(N)s2)cc1
Decrease [20]: 16%

Nc1nnc(SCc2cccc([N+](=O)[O-])c2)s1
Maximum percentage decrease in immobility time (Mus musculus [3]): inactive

CSc1nnc(N(C)C(C)=O)s1
Maximum percentage decrease in immobility time (Mus musculus [3]): inactive

CC(=O)Nc1nnc(SCc2ccc(Cl)cc2)s1
Maximum percentage decrease in immobility time (Mus musculus [3]): inactive

CCCCCCC(=O)Nc1nnc(SCc2ccccc2)s1
Maximum percentage decrease in immobility time (Mus musculus [3]): inactive

Cc1ccc(CSc2nnc(N)s2)cc1
Maximum percentage decrease in immobility time (Mus musculus [3]): inactive

CC(=O)Nc1nnc(SC(C)C)s1
Decrease [21]: 19%

CSc1nnc(N)s1
Decrease [22]: 23%

Nc1nnc(SCc2cccc(Cl)c2)s1
Maximum percentage decrease in immobility time (Mus musculus [3]): inactive

CC(=O)Nc1nnc(SCc2cccc([N+](=O)[O-])c2)s1
Maximum percentage decrease in immobility time (Mus musculus [3]): inactive

CC(C)Sc1nnc(N)s1
Decrease [10]: 17%

COc1cc(CSc2nnc(NC(C)=O)s2)cc(OC)c1OC
Decrease [23]: 14%

CC(=O)Nc1nnc(SCc2ccc(C)cc2)s1
Maximum percentage decrease in immobility time (Mus musculus [3]): inactive

Cc1cccc(CSc2nnc(N)s2)c1
Decrease [24]: 17%

Nc1nnc(SCc2ccccc2)s1
Decrease (Rattus norvegicus [25]): <31% | Decrease (Rattus norvegicus [26]): <24% | Decrease [10]: 35% | Decrease (Rattus norvegicus [27]): <23% | Decrease (Rattus norvegicus [28]): <28% | Decrease (Rattus norvegicus [29]): 10% | Decrease (Rattus norvegicus [30]): <33%

COc1cc(CSc2nnc(N)s2)cc(OC)c1OC
Maximum percentage decrease in immobility time (Mus musculus [3]): inactive

Nc1nnc(SCc2ccc(Cl)cc2)s1
Decrease [23]: 15%

CC(=O)Nc1nnc(SCc2cccc(Cl)c2)s1
Maximum percentage decrease in immobility time (Mus musculus [3]): inactive

Nc1nnc(SCc2ccc([N+](=O)[O-])cc2)s1
NE (Mus musculus [19]): inactive

COc1ccc(CSc2nnc(NC(C)=O)s2)cc1
Decrease [31]: 10%

CC(=O)Nc1nnc(SCc2ccc([N+](=O)[O-])cc2)s1
Decrease [32]: 16%

COc1cccc(CSc2nnc(NC(C)=O)s2)c1
Maximum percentage decrease in immobility time (Mus musculus [3]): inactive

CC(=O)N(C)c1nnc(SC(C)C)s1
Decrease [32]: 17%

CC(=O)Nc1nnc(SCc2ccccc2)s1
Decrease [33]: 22%
